pIC50: −log10 of the molar value.
What was measured:
Assay type in all cases: biochemical
PI3K α (p110α/p85α) = molecular target: T1, PI3K α (p110α/p85α) (Homo sapiens, UniProt P42336); test: PI 3-Kinase (human) HTRF assay, PI3K α; settings: read-out: PI3K α IC50
T1 construct: purchased Upstate / Millipore Corporation

PI3K γ (p110γ) = molecular target: T2, PI3K γ (p110γ) (Homo sapiens, UniProt P48736); test: PI 3-Kinase (human) HTRF assay, PI3K γ; settings: read-out: PI3K γ IC50
T2 construct: purchased Upstate / Millipore Corporation
T2 sequence (P48736 whole entry): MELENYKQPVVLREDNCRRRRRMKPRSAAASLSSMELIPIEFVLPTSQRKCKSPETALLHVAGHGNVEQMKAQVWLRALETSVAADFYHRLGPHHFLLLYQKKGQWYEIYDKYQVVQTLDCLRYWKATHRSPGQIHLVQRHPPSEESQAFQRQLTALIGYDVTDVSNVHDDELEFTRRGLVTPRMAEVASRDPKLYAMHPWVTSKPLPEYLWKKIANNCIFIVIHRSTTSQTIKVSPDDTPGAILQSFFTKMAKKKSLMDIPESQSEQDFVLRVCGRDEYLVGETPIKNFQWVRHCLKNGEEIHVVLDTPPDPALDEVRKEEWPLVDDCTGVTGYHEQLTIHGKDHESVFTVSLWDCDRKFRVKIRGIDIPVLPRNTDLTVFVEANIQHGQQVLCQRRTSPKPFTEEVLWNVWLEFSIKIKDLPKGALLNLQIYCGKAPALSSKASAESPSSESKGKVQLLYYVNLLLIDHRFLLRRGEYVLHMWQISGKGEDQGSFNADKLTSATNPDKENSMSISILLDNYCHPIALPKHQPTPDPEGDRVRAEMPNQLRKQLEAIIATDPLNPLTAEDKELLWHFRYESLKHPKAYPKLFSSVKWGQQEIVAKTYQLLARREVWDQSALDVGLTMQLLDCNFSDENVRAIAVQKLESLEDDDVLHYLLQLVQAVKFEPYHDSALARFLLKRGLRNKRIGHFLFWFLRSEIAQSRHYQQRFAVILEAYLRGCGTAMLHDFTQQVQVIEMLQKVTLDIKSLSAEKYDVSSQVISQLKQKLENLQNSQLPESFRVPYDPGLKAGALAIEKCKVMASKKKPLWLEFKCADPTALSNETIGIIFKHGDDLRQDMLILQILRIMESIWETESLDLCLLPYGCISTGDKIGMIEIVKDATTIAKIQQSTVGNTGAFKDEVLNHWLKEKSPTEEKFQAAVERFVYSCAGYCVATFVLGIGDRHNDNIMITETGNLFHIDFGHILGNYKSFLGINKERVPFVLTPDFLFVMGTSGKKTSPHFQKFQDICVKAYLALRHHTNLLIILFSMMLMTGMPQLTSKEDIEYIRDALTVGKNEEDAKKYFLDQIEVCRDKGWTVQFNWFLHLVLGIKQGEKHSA

PI3K δ = molecular target: T3, PI3K δ (Homo sapiens, UniProt O00329); test: PI 3-Kinase (human) HTRF assay, PI3K δ; settings: read-out: PI3K δ IC50
T3 construct: purchased Upstate / Millipore Corporation
T3 sequence (O00329 whole entry): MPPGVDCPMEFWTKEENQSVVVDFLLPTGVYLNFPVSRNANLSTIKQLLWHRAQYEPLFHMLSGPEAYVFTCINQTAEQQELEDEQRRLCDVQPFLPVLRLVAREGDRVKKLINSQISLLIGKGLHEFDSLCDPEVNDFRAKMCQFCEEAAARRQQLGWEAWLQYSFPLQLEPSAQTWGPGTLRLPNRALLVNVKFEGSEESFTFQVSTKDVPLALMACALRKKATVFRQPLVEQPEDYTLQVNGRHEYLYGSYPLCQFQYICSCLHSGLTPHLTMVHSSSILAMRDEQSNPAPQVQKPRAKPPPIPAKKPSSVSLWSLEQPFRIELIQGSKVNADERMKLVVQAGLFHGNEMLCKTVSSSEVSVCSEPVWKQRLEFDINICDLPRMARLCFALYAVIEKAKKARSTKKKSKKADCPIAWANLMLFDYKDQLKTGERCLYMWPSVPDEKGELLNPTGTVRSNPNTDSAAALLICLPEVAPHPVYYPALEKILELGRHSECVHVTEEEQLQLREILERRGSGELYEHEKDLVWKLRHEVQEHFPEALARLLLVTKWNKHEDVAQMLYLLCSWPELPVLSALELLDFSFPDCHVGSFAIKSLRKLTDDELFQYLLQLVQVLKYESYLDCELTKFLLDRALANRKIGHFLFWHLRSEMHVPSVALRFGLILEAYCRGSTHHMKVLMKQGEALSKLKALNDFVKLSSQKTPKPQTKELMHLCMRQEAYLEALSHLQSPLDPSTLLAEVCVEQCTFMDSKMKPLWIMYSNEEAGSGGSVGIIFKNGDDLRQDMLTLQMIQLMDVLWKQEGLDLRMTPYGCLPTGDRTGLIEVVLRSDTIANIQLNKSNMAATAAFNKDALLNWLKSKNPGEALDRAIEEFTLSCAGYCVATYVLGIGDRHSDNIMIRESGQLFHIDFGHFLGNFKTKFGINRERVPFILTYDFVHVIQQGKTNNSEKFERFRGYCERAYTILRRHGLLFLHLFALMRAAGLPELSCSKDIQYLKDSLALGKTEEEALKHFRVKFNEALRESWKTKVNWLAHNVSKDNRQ
T3 sequence (P27986 whole entry partner): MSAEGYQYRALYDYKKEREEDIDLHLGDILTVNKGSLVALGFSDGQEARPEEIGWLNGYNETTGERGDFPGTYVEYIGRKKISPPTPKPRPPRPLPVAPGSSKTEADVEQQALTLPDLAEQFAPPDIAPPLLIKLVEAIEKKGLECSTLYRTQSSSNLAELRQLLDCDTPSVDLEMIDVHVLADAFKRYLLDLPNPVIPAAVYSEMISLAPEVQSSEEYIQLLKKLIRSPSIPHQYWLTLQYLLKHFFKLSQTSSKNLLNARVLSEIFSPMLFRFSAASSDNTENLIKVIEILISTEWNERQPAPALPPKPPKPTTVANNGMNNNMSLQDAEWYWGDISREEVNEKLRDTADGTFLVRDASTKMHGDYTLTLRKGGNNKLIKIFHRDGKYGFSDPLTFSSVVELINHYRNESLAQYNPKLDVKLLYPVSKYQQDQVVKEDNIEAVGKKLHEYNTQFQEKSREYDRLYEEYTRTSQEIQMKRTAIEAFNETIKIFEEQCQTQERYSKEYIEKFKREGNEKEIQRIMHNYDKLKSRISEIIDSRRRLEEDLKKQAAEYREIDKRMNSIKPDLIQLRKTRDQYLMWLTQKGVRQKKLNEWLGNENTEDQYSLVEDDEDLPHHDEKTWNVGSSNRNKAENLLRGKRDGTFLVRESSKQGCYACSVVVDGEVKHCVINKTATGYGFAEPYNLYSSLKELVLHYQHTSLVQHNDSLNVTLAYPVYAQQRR

PI3K β (p110β/p85α) = molecular target: T4, PI3K β (p110β/p85α) (Homo sapiens, UniProt P42338); test: PI 3-Kinase (human) HTRF assay, PI3K β; settings: read-out: PI3K β IC50
T4 construct: purchased Upstate / Millipore Corporation
T4 sequence (P42338 whole entry): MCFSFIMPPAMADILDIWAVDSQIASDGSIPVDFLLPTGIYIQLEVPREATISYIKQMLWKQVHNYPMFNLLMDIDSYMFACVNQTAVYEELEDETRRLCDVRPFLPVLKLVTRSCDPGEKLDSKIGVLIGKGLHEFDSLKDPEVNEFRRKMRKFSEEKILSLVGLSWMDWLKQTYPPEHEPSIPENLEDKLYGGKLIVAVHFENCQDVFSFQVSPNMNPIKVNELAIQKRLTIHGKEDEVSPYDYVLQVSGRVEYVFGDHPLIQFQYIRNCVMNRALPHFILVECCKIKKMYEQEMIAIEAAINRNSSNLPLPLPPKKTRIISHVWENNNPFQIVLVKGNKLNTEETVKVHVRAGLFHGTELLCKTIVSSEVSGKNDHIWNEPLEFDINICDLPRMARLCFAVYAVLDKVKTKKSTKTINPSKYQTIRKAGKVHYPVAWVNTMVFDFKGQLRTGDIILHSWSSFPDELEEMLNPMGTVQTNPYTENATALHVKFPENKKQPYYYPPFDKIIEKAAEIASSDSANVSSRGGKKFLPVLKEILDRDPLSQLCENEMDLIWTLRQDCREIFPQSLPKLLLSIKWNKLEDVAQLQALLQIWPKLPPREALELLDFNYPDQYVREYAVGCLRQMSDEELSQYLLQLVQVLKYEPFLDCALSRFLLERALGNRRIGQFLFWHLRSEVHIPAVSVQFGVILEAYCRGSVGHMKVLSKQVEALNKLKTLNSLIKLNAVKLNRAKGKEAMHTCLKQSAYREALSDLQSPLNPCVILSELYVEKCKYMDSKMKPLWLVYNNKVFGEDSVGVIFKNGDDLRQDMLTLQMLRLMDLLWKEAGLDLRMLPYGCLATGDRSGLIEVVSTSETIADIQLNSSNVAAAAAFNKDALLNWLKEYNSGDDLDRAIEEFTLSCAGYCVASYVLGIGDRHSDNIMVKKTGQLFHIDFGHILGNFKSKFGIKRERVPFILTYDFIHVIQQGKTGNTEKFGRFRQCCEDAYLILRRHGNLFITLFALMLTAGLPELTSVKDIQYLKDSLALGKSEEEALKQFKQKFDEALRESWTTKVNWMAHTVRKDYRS
T4 sequence (P27986 whole entry partner): as the sequence (P27986 whole entry partner) above

T1 sequence (P42336 whole entry): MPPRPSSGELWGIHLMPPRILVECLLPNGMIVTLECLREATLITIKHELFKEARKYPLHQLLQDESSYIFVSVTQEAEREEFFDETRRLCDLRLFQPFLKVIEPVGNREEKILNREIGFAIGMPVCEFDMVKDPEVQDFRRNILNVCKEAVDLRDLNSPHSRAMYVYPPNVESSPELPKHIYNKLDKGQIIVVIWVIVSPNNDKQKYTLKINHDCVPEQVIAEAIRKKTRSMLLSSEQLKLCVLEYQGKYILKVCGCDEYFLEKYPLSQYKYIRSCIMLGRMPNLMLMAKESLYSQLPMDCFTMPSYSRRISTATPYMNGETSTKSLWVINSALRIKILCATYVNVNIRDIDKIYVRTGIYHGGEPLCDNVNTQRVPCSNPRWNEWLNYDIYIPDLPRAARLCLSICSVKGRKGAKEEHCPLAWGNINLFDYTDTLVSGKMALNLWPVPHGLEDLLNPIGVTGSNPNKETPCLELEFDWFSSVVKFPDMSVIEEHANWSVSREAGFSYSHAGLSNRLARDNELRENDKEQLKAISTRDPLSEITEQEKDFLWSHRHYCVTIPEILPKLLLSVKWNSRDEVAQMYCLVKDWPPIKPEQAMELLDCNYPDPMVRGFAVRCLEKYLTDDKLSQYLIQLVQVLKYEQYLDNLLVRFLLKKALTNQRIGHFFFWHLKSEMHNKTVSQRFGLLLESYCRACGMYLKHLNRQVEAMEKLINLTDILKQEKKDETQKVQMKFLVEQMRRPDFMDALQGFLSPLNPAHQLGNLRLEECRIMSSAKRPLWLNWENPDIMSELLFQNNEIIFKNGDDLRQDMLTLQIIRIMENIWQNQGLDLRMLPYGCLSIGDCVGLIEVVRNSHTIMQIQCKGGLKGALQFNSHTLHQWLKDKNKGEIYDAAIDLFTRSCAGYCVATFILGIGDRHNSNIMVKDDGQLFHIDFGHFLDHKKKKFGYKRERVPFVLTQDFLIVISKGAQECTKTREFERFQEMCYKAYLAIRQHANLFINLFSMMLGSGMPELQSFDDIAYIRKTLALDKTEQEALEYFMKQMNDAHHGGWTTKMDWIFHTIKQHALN
T1 sequence (P27986 whole entry partner): as the sequence (P27986 whole entry partner) above

SMILES | pIC50 (PI3K α (p110α/p85α)) | pIC50 (PI3K γ (p110γ)) | pIC50 (PI3K δ) | pIC50 (PI3K β (p110β/p85α))
Cc1ccn(C2CCN(c3cnc4ccc(-c5ccc6oc(N)nc6c5)cc4n3)CC2)n1 [Compound 223] | > 7.00 | > 6.00 | < 5.00 | < 5.00
CCN(CC)CCn1cnc2ccc(-c3ccc4oc(N)nc4c3)cc2c1=O [Compound 224] | > 5.00 | < 5.00 | < 5.00 | < 5.00
Nc1nc2cc(-c3ccc4ncc(N5CCN(C(=O)[C@H]6CCCN6)CC5)nc4c3)ccc2o1 [Compound 225] | > 7.00 | > 7.00 | > 7.00 | > 7.00
Nc1nc2cc(-c3ccc4ncc(N5CCN(C(=O)C6(N)CC6)CC5)nc4c3)ccc2o1 [Compound 226] | > 6.00 | > 5.00 | > 5.00 | < 5.00
Nc1nc2ccc(-c3ccc4nnc(-c5ccncc5)n4c3)cc2o1 [Compound 230] | > 5.00 | > 6.00 | > 5.00 | > 6.00
COc1nc(-c2ccc3oc(N)nc3c2)cnc1N [Compound 238] | > 6.00 | > 6.00 | > 5.00 | > 6.00
Nc1nc2ccc(-c3ccc4nc(N)sc4c3)cc2o1 [Compound 243] | > 6.00 | > 7.00 | < 5.00 | > 7.00
Nc1cn2cc(-c3ccc4oc(N)nc4c3)ccc2n1 [Compound 245] | > 6.00 | > 6.00 | < 5.00 | > 5.00
Nc1cn2cc(-c3ccc4nc(N)oc4c3)ccc2n1 [Compound 247] | < 5.00 | > 5.00 | < 5.00 | > 5.00
CC(=O)Nc1nc2cc(-c3ccc4oc(N)nc4c3)ccc2s1 [Compound 250] | < 5.00 | > 7.00 | < 5.00 | < 5.00
CC(=O)Nc1nc2cc(-c3ccc4nc(N)oc4c3)ccc2s1 [Compound 251] | > 7.00 | > 7.00 | > 7.00 | > 7.00
Nc1nc2cc(-c3ccc4ncc(N5CC(C(=O)N6CCOCC6)C5)nc4c3)ccc2o1 [Compound 252] | < 5.00 | > 5.00 | > 5.00 | > 5.00
CN1CCN(C(=O)C2CN(c3cnc4ccc(-c5ccc6oc(N)nc6c5)cc4n3)C2)CC1 [Compound 253] | < 5.00 | > 5.00 | > 5.00 | > 5.00
Nc1nc2cc(-c3ccc4ncn(C5CC5)c(=O)c4c3)ccc2o1 [Compound 254] | > 6.00 | > 6.00 | < 5.00 | < 5.00
Nc1nc2cc(-c3ccc4ncn(CCN5CCCC5)c(=O)c4c3)ccc2o1 [Compound 255] | > 5.00 | > 5.00 | > 5.00 | > 5.00
Nc1nc2cc(-c3ccc4ncn(CCCN5CCCC5)c(=O)c4c3)ccc2o1 [Compound 271] | > 6.00 | < 5.00 | > 5.00 | > 5.00
COCCn1cnc2ccc(-c3ccc4oc(N)nc4c3)cc2c1=O [Compound 272] | > 6.00 | > 5.00 | < 5.00 | > 5.00
CN1CCN(CCNc2cnc3ccc(-c4ccc5oc(N)nc5c4)cc3n2)CC1 [Compound 275] | > 7.00 | > 6.00 | > 6.00 | > 6.00
Nc1nc2cc(-c3ccc4ncc(N5CCN(C(=O)CN6CCCC6)CC5)nc4c3)ccc2o1 [Compound 278] | > 7.00 | > 6.00 | > 5.00 | > 6.00
CN1CCN(CCn2cnc3ccc(-c4ccc5oc(N)nc5c4)cc3c2=O)CC1 [Compound 280] | > 5.00 | < 5.00 | < 5.00 | < 5.00
CC(C)N1CCN(C(=O)C2CN(c3cnc4ccc(-c5ccc6oc(N)nc6c5)cc4n3)C2)CC1 [Compound 285] | > 7.00 | > 6.00 | > 6.00 | > 5.00
CCN(CC)CCNC(=O)c1cnc2ccc(-c3ccc4oc(N)nc4c3)cn12 [Compound 295] | > 6.00 | > 6.00 | > 6.00 | > 6.00
Nc1nc2cc(-c3ccc4ncc(N5CCN(C(=O)[C@H](N)CO)CC5)nc4c3)ccc2o1 [Compound 299] | > 7.00 | > 7.00 | > 7.00 | > 6.00
C[C@H]1CN(c2cnc3ccc(-c4ccc5sc(N)nc5c4)cc3n2)CCN1 [Compound 307] | > 6.00 | < 5.00 | < 5.00 | > 6.00
Cc1nc(NC(=O)N2CCC[C@H]2C(N)=O)sc1-c1ccc2oc(N)nc2c1 [Compound 311] | > 6.00 | < 5.00 | < 5.00 | < 5.00

Further lines, results first:

pIC50 (PI3K α (p110α/p85α)) | pIC50 (PI3K γ (p110γ)) | pIC50 (PI3K δ) | pIC50 (PI3K β (p110β/p85α)) | SMILES
> 7.00 | > 6.00 | > 7.00 | > 6.00 | Nc1nc2cc(-c3ccc4ncc(NCCCN5CCOCC5)nc4c3)ccc2o1 [Compound 222]
> 7.00 | > 7.00 | < 5.00 | > 7.00 | CC(=O)Nc1nc2ccc(-c3ccc4nc(N)oc4c3)cc2s1 [Compound 242]
< 5.00 | < 5.00 | < 5.00 | < 5.00 | Nc1nc2ccc(-c3ccc4nc(N)oc4c3)cc2o1 [Compound 246]
> 5.00 | > 6.00 | > 5.00 | > 6.00 | Nc1nc2cc(-c3ccc4sc(N)nc4c3)ccc2o1 [Compound 248]
> 7.00 | > 7.00 | > 6.00 | > 7.00 | Nc1nc2ccc(-c3ccc4sc(N)nc4c3)cc2o1 [Compound 249]
> 5.00 | < 5.00 | < 5.00 | < 5.00 | Nc1nc2cc(-c3ccc4ncn(C5CCCC5)c(=O)c4c3)ccc2o1 [Compound 256]
> 7.00 | < 5.00 | < 5.00 | < 5.00 | NC(=O)[C@@H]1CCCN1c1cnc2ccc(-c3ccc4oc(N)nc4c3)cc2n1 [Compound 257]
> 6.00 | > 5.00 | < 5.00 | < 5.00 | NC(=O)[C@@H]1CCCN1C(=O)c1cnc2ccc(-c3ccc4oc(N)nc4c3)cn12 [Compound 259]
> 7.00 | > 5.00 | > 5.00 | > 5.00 | Nc1nc2cc(-c3ccc4ncc(C(=O)N5CCN(C6CC6)CC5)n4c3)ccc2o1 [Compound 263]
> 7.00 | > 6.00 | > 6.00 | > 5.00 | Nc1nc2cc(-c3ccc4ncc(C(=O)N5CC(N6CCOCC6)C5)n4c3)ccc2o1 [Compound 266]
> 7.00 | > 6.00 | > 5.00 | > 5.00 | C[C@H]1CN(C(=O)C2CN(c3cnc4ccc(-c5ccc6oc(N)nc6c5)cc4n3)C2)CCN1 [Compound 268]
> 7.00 | > 5.00 | > 5.00 | > 5.00 | CCN(CC)CC(=O)N1CCN(c2cnc3ccc(-c4ccc5oc(N)nc5c4)cc3n2)CC1 [Compound 279]
> 7.00 | > 7.00 | > 6.00 | > 6.00 | Nc1nc2cc(-c3ccc4ncc(N5CCN(C(=O)C6(N)CCC6)CC5)nc4c3)ccc2o1 [Compound 286]
> 7.00 | > 6.00 | > 6.00 | > 5.00 | Nc1nc2cc(-c3ccc4ncc(N5CC(C(=O)N6CCN(CC7CC7)CC6)C5)nc4c3)ccc2o1 [Compound 287]
> 6.00 | > 5.00 | > 6.00 | > 6.00 | Nc1nc2cc(-c3ccc4ncc(C(=O)NCCCN5CCOCC5)n4c3)ccc2o1 [Compound 288]
> 6.00 | > 6.00 | < 5.00 | > 5.00 | Nc1nc2cc(-c3ccc4ncn(CCN5CCOCC5)c(=O)c4c3)ccc2o1 [Compound 289]
> 6.00 | < 5.00 | < 5.00 | < 5.00 | Nc1nc2cc(-c3ccc4ncn(CCCN5CCOCC5)c(=O)c4c3)ccc2o1 [Compound 290]
> 6.00 | < 5.00 | < 5.00 | < 5.00 | CN1CCN(CCCn2cnc3ccc(-c4ccc5oc(N)nc5c4)cc3c2=O)CC1 [Compound 291]
> 5.00 | < 5.00 | < 5.00 | < 5.00 | CN(C)CCn1cnc2ccc(-c3ccc4oc(N)nc4c3)cc2c1=O [Compound 292]
> 7.00 | > 6.00 | > 7.00 | > 6.00 | Nc1nc2cc(-c3ccc4ncc(C(=O)NCCCN5CCCC5)n4c3)ccc2o1 [Compound 293]
> 6.00 | > 5.00 | < 5.00 | < 5.00 | Cc1ccn(C2CCN(C(=O)c3cnc4ccc(-c5ccc6oc(N)nc6c5)cn34)CC2)n1 [Compound 297]
> 5.00 | < 5.00 | < 5.00 | > 5.00 | Nc1nc2ccc(-c3ccc4nnc(-c5cccnc5)n4c3)cc2o1 [Compound 301]
> 6.00 | > 5.00 | > 7.00 | > 5.00 | CCN(CC)CCCNC(=O)c1cnc2ccc(-c3ccc4oc(N)nc4c3)cn12 [Compound 302]
> 5.00 | < 5.00 | < 5.00 | < 5.00 | Nc1nc2ccc(-c3ccc4nnc(C(=O)N5CCCC5)n4c3)cc2o1 [Compound 305]
> 6.00 | > 5.00 | < 5.00 | > 6.00 | C[C@H]1CN(c2cnc3ccc(-c4ccc5nc(N)oc5c4)cc3n2)CCN1 [Compound 309]
< 5.00 | < 5.00 | < 5.00 | < 5.00 | C[C@H]1CN(c2cnc3ccc(-c4cccc5nc(N)oc45)cc3n2)CCN1 [Compound 310]

From patent US20150087627A1, “COMBINATION OF KINASE INHIBITORS AND USES THEREOF” (Intellikine LLC, priority 2011, published 2015)
